Measurements taken from patent US20070003531A1, “Methods for improving immunotherapy by enhancing survival of antigen-specific cytotoxic T lymphocytes” (University of Connecticut, priority 2005, published 2007).
Entries after “also recorded” stand apart in the source; their conditions may differ.

Experiments:
[1] = tested on: MART-127-35 epitope specific CTLs; experiment: Chromium release microcytotoxicity assay; type: cell-based; details: % specific lysis of peptide loaded T2 cells; inhibitor 25 μM
[2] = tested on: AIF translocation in MART-127-35 specific CTL; experiment: Mitochondrio-nuclear translocation/release of AIF in CTL during AICD; type: cell-based, human; details: CTL restimulated by cognate epitope
Text: FIG. 14. Nuclear translocation of AIF and effect of SP600125 on the AIF release and such translocation. The MART-1 epitope specific CTLs generated in the in vitro CTL generation protocol were restimulated by the cognate epitope or a control epitope in the presence or absence of the JNK inhibitor SP600125. (A) Western blot of heavy membrane faction (HM) and cytosolic fraction (S-100) of control CTL (C) and CTLs restimulated by the cognate peptide (M1). As shown, AIF is released in the cytosol of CTLs encountering the cognate peptide without any release of cytochrome c. (B) Effect of SP600125 on AIF release in CD3 induced AICD in Jurkat cells. As shown, AIF is released without cytochrome c release in these cells and SP600125 interferes with the AIF release. (C) Densitometric analysis of the SP600125 effect on AIF release.
Sub-cellular Fractionation. Sub-cellular fractionation was done according to Gross, et al., with minor modifications. Heavy membrane and light membrane fractions were solublized in RIPA buffer supplemented with protease inhibitors and the proteins extracted from heavy membrane (HM), light membrane (LM) and supernatant (S-100) fractions were analyzed by immuno-blot analysis.
Immunofluorescence microscopy. […] The cells were fixed with 4% para-formaldehyde in PBS and stained with appropriate antibodies for co-localization of proteins by fluorescence microscopy. […]

[3] = tested on: c-jun phosphorylation/activation in Jurkat T cells; experiment: JNK activation assay in PMA/ionomycin stimulated Jurkat cells; type: cell-based, human; details: PMA (10 ng/ml)/ionomycin (0.5 μM); SP600125 25 μM
Experimental: FIG. 1. […] (A) Effect of the JNK inhibitor SP600125 on AICD in the MART-127-35 epitope specific CTL. Histogram represents FACS analysis of the percent of MART-127-35 epitope specific CTLs that were tetramer positive and annexin negative after restimulation with MAGE-3271-279 control peptide (M3) pulsed T2 cells or MART-127-35 peptide (M1) pulsed T2 cells either alone or re-stimulated after pre-incubation with JNK inhibitor SP600125, p38-kinase inhibitor SB203580, ERK1/2 inhibitor PD98059 or caspase-inhibitor z-VAD-fink. MAGE-3271-279. (B) JNK activation results in phosphorylation of c-Jun during AICD in CTL that is blocked by SP600125. Immunoblots show analyses of CTL extracts probed with anti-phosphor-c-Jun, anti-c-Jun, and anti-actin antibodies. […] (i) Jurkat cells were treated with PMA+ionomycin in the absence or presence of SP600125 and JNK activation (c-Jun phosphorylation) was assessed with anti-phospho-c-Jun antibody. […] (ii) Jurkat cells were treated with Staurosporine for 1 and 4 hrs in the absence (S) or presence of caspase inhibitor, z-VAD-fmk (CI), JNK inhibitor, SP600125 (SP) or ERK1/2 inhibitor PD98059 (PD) and cleavage of PARP was detected by immunoblotting, using actin as a loading control. […] Percent annexin positive cells in all samples were quantified by FACS analysis and shown below the blot […]

[4] = tested on: phosphorylated Bim in CTL; experiment: Generation of short phosphorylated Bim fragment in CTL during AICD; type: cell-based, human; details: CTLs encountering the MART-1 peptide
Text: FIG. 16. Mitochondrial localization of JNK in the CTL. (A)—Heavy membrane fractions from CTLs in steady state (C), restimulated by the cognate peptide (M1) and control peptide (M3) and the corresponding cytosolic fractions (S-100) were probed for the presence for JNKs. As shown, JNK preferentially localized in the membrane fraction. (B)—The generation of short pBim fragment during AICD and the effect of SP600125 on the generation of this fragment. Mart-1 epitope specific control CTLs (c), and CTLs encountering the cognate peptide (M1), or encountering a control peptide (M3) and encountering the cognate peptide in the presence of SP600125 (SP) or encountering the cognate peptide in the presence of ERK1/2 inhibitor (PD)were probed with an anti-phosphorylated Bim antibody. A phosphorylated short fragment of Bim is generated in the CTLs encountering the MART-1 peptide and this is blocked by SP600125. (C)—Western blot of whole cell lysate of CTLs showing interaction between JNK and VDAC in CTLs (c=control, M1=CTL restimulated by the cognate peptide) Anti-CD8 Ab was used as a control antibody for immunoprecipitation.

For `O=C1c2ccccc2-c2n[nH]c3cccc1c23` [SP600125, anthra[1,9-cd]pyrazol-6(2H)-one], the “cytotoxic function of CTLs in presence of inhibitor” value [1] was “did not affect; also recorded: does not affect”, the “mitochondrio-nuclear translocation/release of AIF in CTL” value [2] was “blocks; also recorded: blocking effect” and the “c-Jun activation (phosphorylation) in Jurkat cells” value [3] was “inhibitory effect; also recorded: abrogates”. For the same compound, the “generation/phosphorylation of short phosphorylated Bim fragment” value [4] was “inhibitable; also recorded: blocked”.
